The subject of data set [1] is male mice. As to the kind of experiment: Acute toxicity, mortality after a single dose (oral or intravenous). In kind it is in vivo. Conditions: 500 mg/kg, 10080 min; for % mortality: Table I, single oral dose of 500 mg/kg, day 7 after application. As for the experimental part:
(§1) ^a Acute oral toxicity of each substance was evaluated after a single
(§2) dose of 500 mg/kg in male mice. The mortality in % is for day 7 after
(§3) ^a Acute toxicity was evaluated after a single dose of substance 1764
(§4) in male mice, namely orally as an aqueous solution, and intravenously in
(§5) physiological saline solution. Mortality was followed up in groups of 10
(§6) animals for 7 days upon oral application and for 3 days upon intravenous

Data set [2] is described as follows: Suppression of carragenine oedema (CE), anti-inflammatory effect. It is filed as in vivo. Conditions: for CE inhibition %: Table I, oral suspension in 0.5% methylcellulose, dose equimolar to flobufen 20 mg/kg, 1 hour upon application; for CE suppression %: Table II. On the procedure: (§7) ^b Antiinflammatory and analgesic activity was evaluated in compariso
(§8) with flobufen in equimolar doses, while flobufen was administered in a
(§9) dose of 20 mg/kg in the evaluation of antiinflammatory activity and in a
(§10) dose of 100 mg/kg in the evaluation of analgesic activity; the substances
(§11) were administered orally as a suspension in a 0.5% solution of
(§12) methylcellulose and the oedema was measured 1 hour upon application;
^c Suppression of the carraganine oedema was assessed according to
Winter J.: Proc. Soc. exptl. Biol. Med., 111, 544 (1962);
(§13) ^b for oral and intramuscular application an aqueous solution of
(§14) substance 17640 was used in said dose;
(§15) ^c the standard, i.e. 4(2,4-difluorobiphenylyl)-2-methyl-4-oxobutanic
(§16) acid was administered as a suspension in a 0.5% methylcellulose solution.

Data set [3] in a line: Freund adjuvant test, inhibition of adjuvant oedema (FA), anti-inflammatory effect. It is filed as in vivo. The conditions noted are these: for FA inhibition %: Table I, oral suspension in 0.5% methylcellulose, dose equimolar to flobufen 20 mg/kg; for FA suppression %: Table II, oral. As for the experimental part:
as §7, §8, §9, §10, §11, §12
^d Antiinflammatory effect in the Freundadjuvant test was assessed
according to Horakova Z., Grimova J.: Cs. Fysiol. 17, 137 (1968);
as §13, §14, §15, §16

A short description of data set [4]: Analgesic activity, intraperitoneal irritation with 0.7% acid. It is filed as in vivo, male mice. Conditions: for Pain inhibition %: Table I, oral suspension in 0.5% methylcellulose, dose equimolar to flobufen 100 mg/kg, male mice; for Pain suppression %: Table II. On the procedure:
as §7, §8, §9, §10, §11
^e Analgesic activity was evaluated in the test of intraperitoneal
irritation with 0.7% acid in male mice according to Witkin L. et al.: J.
as §13, §14, §15, §16

Data set [5] is described as follows: Acute toxicity, mortality after a single dose (oral or intravenous). In kind it is in vivo. Conditions: mouse, male mice; for mortality at 168 h: in vivo, po, 500 mg/kg, Table I, single oral dose of 500 mg/kg, day 7 after application. As for the experimental part:
as §1, §2, §3, §4, §5, §6

Counter-ions that a name gives are not always drawn.

The mortality is the percentage killed.

With `CC(CC(=O)c1ccc(-c2ccc(F)cc2F)cc1)C(=O)O` (stereo not drawn) [Flobufen, 4(2,4-difluorobiphenylyl)-2-methyl-4-oxobutanic acid, reference compound], the “% mortality” value in data set [1] is recorded as 50%. Further, the “Acute toxicity, % mortality” value in data set [1] (Table II, oral, dose 500, aqueous solution (flobufen: suspension in 0.5% methylcellulose), 7 days) came to 50%. Moreover, the CE inhibition % in data set [2] was 46%. Further, the CE suppression % in data set [2] (oral, dose 20, suspension in 0.5% methylcellulose) amounted to 46%. In addition, in data set [3], the FA inhibition % amounted to 65%. Moreover, in data set [3] (dose 20, suspension in 0.5% methylcellulose), the FA suppression % was 65%. This compound registered a Pain inhibition % in data set [4] of 79%. In addition, in data set [4] (oral, dose 100, suspension in 0.5% methylcellulose), the Pain suppression % was 79%.

For the compound `CC(CC(=O)c1ccc(-c2ccc(F)cc2F)cc1)C(=O)O` (stereo not drawn) [VUFB 17629, Cyclohexylammonium Salt of 4-/2,4-Difluorobiphenylyl/-2-methyl-4-oxobutan Acid], the “% mortality” value in data set [1] is 0%. Moreover, the CE inhibition % in data set [2] is reported as 47%. In addition, the FA inhibition % in data set [3] is 53%. The same compound had a Pain inhibition % in data set [4] of 58%.

On to `CC(CC(=O)c1ccc(-c2ccc(F)cc2F)cc1)C(=O)O` (stereo not drawn) [VUFB 17640], for which the mortality at 72 h in data set [5] (physiological saline, iv, 100 mg/kg, Table II, parenteral (intravenous), dose 100, physiological saline, 3 days) worked out at 0%. The CE suppression % came out at 46% in data set [2] (oral, dose 30, aqueous solution); 21% in data set [2] (parenteral (intramuscular), dose 1, aqueous solution); 40% in data set [2] (parenteral (intramuscular), dose 10, aqueous solution). In addition, the FA suppression % in data set [3] (dose 30, aqueous solution) came out at 58%. Also, the Pain suppression % came out at 77% in data set [4] (oral, dose 150, aqueous solution) and 48% in data set [4] (parenteral (intramuscular), dose 80, aqueous solution).

`CCOC(=O)C(C)CC(=O)c1ccc(-c2ccc(F)cc2F)cc1` (stereo not drawn) [VUFB 18391] displayed a mortality at 168 h in data set [5] of 0%. For the same compound, the CE inhibition % in data set [2] is given as 49%. In data set [3], the FA inhibition % is given as 55%. Besides, the Pain inhibition % in data set [4] came to 38%.

Take `CCOC(=O)CNC(=O)C(C)CC(=O)c1ccc(-c2ccc(F)cc2F)cc1` (stereo not drawn) [VUFB 18392]: the mortality at 168 h in data set [5] turned out to be 0%. The compound further registered a CE inhibition % in data set [2] of 40%. Moreover, the FA inhibition % in data set [3] came out at 51%. For the same compound, in data set [4], the Pain inhibition % came out at 41%.

Compound `CCCCNC(=O)C(C)CC(=O)c1ccc(-c2ccc(F)cc2F)cc1` (stereo not drawn) [VUFB 18398, n-Butylamide of 4-/2,4-Difluorobiphenylyl/-2-methyl-4-oxobutan Acid] showed a mortality at 168 h in data set [5] of 0%. For the same compound, the CE inhibition % in data set [2] is on record as 33%. The FA inhibition % in data set [3] was determined as 44%. This compound showed a Pain inhibition % in data set [4] of 33%.

Regarding `CC(CC(=O)c1ccc(-c2ccc(F)cc2F)cc1)C(=O)O` (stereo not drawn) [VUFB 18404], the “% mortality” value in data set [1] is 30%. Also, the CE inhibition % in data set [2] came out at 44%. Also, in data set [3], the FA inhibition % was found to be 51%. This compound also had a Pain inhibition % in data set [4] of 35%.

Turning to `CC(CC(=O)c1ccc(-c2ccc(F)cc2F)cc1)C(=O)O` (stereo not drawn) [VUFB 18405, Potassium Salt of 4-/2,4-Difluorobiphenylyl/-2-methyl-4-oxobutan Acid], the “% mortality” value in data set [1] worked out at 20%. For the same compound, in data set [2], the CE inhibition % came to 39%. Also, the FA inhibition % in data set [3] is listed as 50%. Also, the Pain inhibition % in data set [4] amounted to 47%.
